{"source": "patent US20250074912A1", "about": "“IMPROVED PROCESS FOR THE PREPARATION OF UPADACITINIB” (MSN LABORATORIES PRIVATE LIMITED, R&D CENTER, priority 2022, published 2025)", "test": "Storage stability of amorphous Upadacitinib", "type": "physicochemical", "data": [{"smiles": "CC[C@@H]1CN(C(=O)NCC(F)(F)F)C[C@@H]1c1cnc2cnc3[nH]ccc3n12", "note": "[Amorphous form of Upadacitinib, (3S,4R)-3-ethyl-4-(3H-imidazo[1,2-a]pyrrolo[2,3-e]pyrazin-8-yl)-N-(2,2,2-trifluoroethyl)pyrrolidine-1-carboxamide]", "values": [{"measurement": "stability on storage", "setting": "12 months at 25° C./60+5% relative humidity", "result": "stable"}, {"measurement": "stability on storage", "setting": "12 months at 40±2° C./75±5% relative humidity", "result": "stable"}]}]}
